Test results from patent US8058261B2, “3′-ethynylcytidine derivative” (Taiho Pharmaceutical Co., Ltd., priority 2006, dated 2011).
Structures can show the parent of a compound that is named as a salt.

How the values were obtained:
[1] = system: Yoshida Sarcoma cell line (rat ascites tumor); test: Antitumor effect when perorally administered, Donryu rat subcutaneous tumor implantation system; assay type: in vivo, Donryu rats; details: perorally once a day for seven days at 12 μmol/kg/day; tumor weight seven days after grouping vs non-treatment group; ECyd equimolar
Description: Pharmacological Test Example 1 Antitumor Effect of the Compound of the Present Invention When Perorally Administered to Donryu Rat Subcutaneous Tumor Implantation System
Cells of a Yoshida Sarcoma cell line (rat ascites tumor) intraperitoneally subcultured in Donryu rats (Charles River Laboratories Japan, Inc.) were implanted subcutaneously to 5-week-old Donryu rats in the back thereof at 2×10^4 cells/0.2 mL. Four days after implantation, the body weight of each rat was measured, and the rats were grouped so that the average body weight was nearly equal between the groups (7 rats per group).
Each of the ECyd derivatives was dissolved or suspended in 0.5% hydroxypropylmethylcellulose solution, and the resultant solution or suspension was perorally administered to each rat every day from the day of grouping once a day for seven days at a dose of 12 μmol/kg/day. The ECyd derivative was evaluated three times. As a control in each test, ECyd was used in an equimolar amount as the ECyd derivative.
Seven days after the day of grouping, the tumor weight of the rat in the pharmaceutical agent administration group was measured. The tumor weight of the rat to which no pharmaceutical agent had been administered (non-treatment group) was also measured. The average tumor weight of each of the pharmaceutical agent administration group and the non-treatment group was calculated. Tumor growth inhibition rate (IR) was determined through use of the following equation, whereby antitumor effect was evaluated. IR(%)=[1−(TWtest)/(TWcont)]×100 (Equation 1) [wherein TWtest and TWcont represent the average tumor weight of the pharmaceutical agent administration group and the non-treatment group, respectively].

[2] = Serum ECyd level after peroral administration; assay type: in vivo; details: perorally administered to Donryu male rats; compared with ECyd
Description: Separately, the compound of the present invention was perorally administered to Donryu male rats, and serum ECyd level was measured.

[3] = system: human tumor cells; details: intravenous 0.25 mg/kg for ten continuous days; gastric, colon, pancreatic, esophageal, bile duct, lung, breast, renal cancer strains; cited from earlier work

| SMILES | melting point | Tumor growth inhibition rate IR (%) [1] [%] | serum ECyd level (concentration in blood) [2] | anti-tumor effect [3] |
| --- | --- | --- | --- | --- |
| C#C[C@@]1(O)[C@@H](CO[Si](C)(C)C(C)(C)C)O[C@@H](n2ccc(NC(=O)OC(C)(C)C)nc2=O)[C@@H]1O | 103 to 110 °C | – | – | – |
| C#C[C@@]1(O)[C@@H](CO[Si](CC)(CC)CC)O[C@@H](n2ccc(N)nc2=O)[C@@H]1O | 202 to 204 °C | – | – | – |
| C#C[C@@]1(O)[C@@H](CO[Si](C)(C)c2ccccc2)O[C@@H](n2ccc(N)nc2=O)[C@@H]1O | 171 to 173 °C | – | – | – |
| C#C[C@@]1(O)[C@@H](CO[Si](C)(C)C(C)(C)C(C)C)O[C@@H](n2ccc(N)nc2=O)[C@@H]1O | > 197 °C (dec.) | – | – | – |
| C#C[C@@]1(O)[C@@H](CO)O[C@@H](n2ccc(N)nc2=O)[C@@H]1O[Si](C)(C)C(C)(C)C(C)C (as salt: trifluoroacetic acid salt) [Compound 13, 1-(2-O-Dimethylthexylsilyl-3-C-ethynyl-1-β-D-ribofuranosyl)cytosine trifluoroacetic acid salt] | 182 °C | – | – | – |
| C#C[C@@]1(O)[C@@H](CO[Si](c2ccccc2)(c2ccccc2)C(C)(C)C)O[C@@H](n2ccc(N)nc2=O)[C@@H]1O (hydrate or solvate) | 210 to 213 °C | – | – | – |
| C#C[C@@]1(O)[C@@H](CO[Si](C)(C)C(C)(C)C)O[C@@H](n2ccc(N)nc2=O)[C@@H]1O [Compound 1, 1-[5-O-(tert-Butyldimethylsilyl)-3-C-ethynyl-β-D-ribofuranosyl]cytosine] | 251 to 256 °C (dec.) | 94.6 | particularly high concentration in blood | – |
| C#C[C@@]1(O)[C@@H](CO[Si](C(C)C)(C(C)C)C(C)C)O[C@@H](n2ccc(N)nc2=O)[C@@H]1O [Compound 3, 1-[5-O-Triisopropylsilyl-3-C-ethynyl-β-D-ribofuranosyl]cytosine] | > 219 °C (dec.) | 93.4 | particularly high concentration in blood | – |
| C#C[C@@]1(O)[C@@H](CO[Si](C)(C)CCCCCCCC)O[C@@H](n2ccc(N)nc2=O)[C@@H]1O [Compound 4, 1-[5-O-(Dimethyl-n-octylsilyl)-3-C-ethynyl-β-D-ribofuranosyl]cytosine] | 175 to 177 °C (dec.) | – | particularly high concentration in blood | – |
| C#C[C@@]1(O)[C@@H](CO)O[C@@H](n2ccc(N)nc2=O)[C@@H]1O[Si](C)(C)C(C)(C)C [Compound 9, 1-[2-O-(tert-Butyldimethylsilyl)-3-C-ethynyl-1-β-D-ribofuranosyl]cytosine] | – | 99.6 | particularly high concentration in blood | – |
| C#C[C@@]1(O)[C@@H](CO)O[C@@H](n2ccc(N)nc2=O)[C@@H]1O[Si](C(C)C)(C(C)C)C(C)C [Compound 11, 1-(2-O-Triisopropylsilyl-3-C-ethynyl-1-β-D-ribofuranosyl)cytosine] | – | 88.3 | particularly high concentration in blood | – |
| C#C[C@@]1(O)[C@@H](CO[Si](C)(C)C(C)(C)C(C)C)O[C@@H](n2ccc(N)nc2=O)[C@@H]1O[Si](C)(C)C(C)(C)C(C)C [Compound 12, 1-(2,5-bis-O-Dimethylthexylsilyl-3-C-ethynyl-1-β-D-ribofuranosyl)cytosine] | 106 to 108 °C | 91.5 | particularly high concentration in blood | – |
| C#C[C@@]1(O)[C@@H](CO)O[C@@H](n2ccc(N)nc2=O)[C@@H]1O[Si](C)(C)C(C)(C)C(C)C [Compound 14, 1-(2-O-Dimethylthexylsilyl-3-C-ethynyl-1-β-D-ribofuranosyl)cytosine] | 218 °C | 99.8 | particularly high concentration in blood | – |
| C#C[C@@]1(O)[C@@H](CO[Si](C)(C)C(C)(C)C)O[C@@H](n2ccc(NC(=O)CCCCCC)nc2=O)[C@@H]1O [Compound 15, 1-[5-O-(tert-Butyldimethylsilyl)-3-C-ethynyl-β-D-ribofuranosyl]-4-N-heptanoylcytosine] | 134 to 137 °C | – | particularly high concentration in blood | – |
| C#C[C@@]1(O)[C@@H](CO[Si](C)(C)C(C)(C)C)O[C@@H](n2ccc(NC(=O)CN(C)C)nc2=O)[C@@H]1O [Compound 17, 1-[5-O-(tert-Butyldimethylsilyl)-3-C-ethynyl-β-D-ribofuranosyl]-4-N-(N,N-dimethylglycyl)cytosine] | 180 to 185 °C | – | particularly high concentration in blood | – |
| C#C[C@@]1(O)[C@@H](CO[Si](C(C)C)(C(C)C)C(C)C)O[C@@H](n2ccc(NC(=O)CN(C)C)nc2=O)[C@@H]1O [Compound 18, 1-[5-O-(Triisopropylsilyl)-3-C-ethynyl-β-ribofuranosyl]-4-N-(N,N-dimethylglycyl)cytosine] | 146 to 148 °C | – | particularly high concentration in blood | – |
| C#C[C@@]1(O)[C@@H](CO)O[C@@H](n2ccc(N)nc2=O)[C@@H]1O [ECyd, 3′-ethynylcytidine] | – | 46.6 | – | excellent anti-tumor effect more greatly than any of fluoropyrimidine-based drugs |
